From patent US10858360B2, “Tricyclic gyrase inhibitors” (priority 2011, dated 2020)
≈ marks a conversion by molar mass, not a printed value. Like-named read-outs stand apart in the source and are kept apart here.

Assays:
S. aureus ATCC 13709 = assay: MIC, S. aureus ATCC 13709 (Alamar Blue broth microdilution); assay type: cell-based; conditions: for MIC: Staphylococcus aureus, ATCC13709, S. aureus
E. coli ATCC 25922 = assay: MIC, E. coli ATCC 25922; assay type: cell-based; conditions: for MIC: Escherichia coli, ATCC25922, E. coli
[1] = S. aureus, Alamar Blue read after overnight incubation at 35° C.
[2] = E. coli, Alamar Blue read after overnight incubation at 35° C.
[3] = Alamar Blue read after overnight incubation at 35° C.

| Compound | MIC Sa (S. aureus ATCC 13709; [1]) [µg/mL] | MIC Ec (E. coli ATCC 25922; [2]) [µg/mL] | MIC (S. aureus ATCC 13709; [3]) [µg/mL] | MIC (E. coli ATCC 25922; [3]) [µg/mL] | also measured |
| --- | --- | --- | --- | --- | --- |
| CNc1cc(F)cc2c1[nH]c1nc(Oc3cnc(C)nc3)nc(N3CC(N4CC(N)C4)C3)c12 [4.158] | ≤0.5 | 4 (≈ 8.9 µM) | – | – | – |
| CNc1cc(F)cc2c1[nH]c1nc(Oc3cnc(C4CCC4)nc3)nc(N3CC4C(N)C4C3)c12 (centres unmarked) [4.286] | – | – | ≤ 0.5 | ≤ 0.5 | – |
| CNc1cc(F)cc2c1[nH]c1nc(Oc3cnc(N)nc3)nc(N3CCC4(CC4N)C3)c12 (centres unmarked) [4.173] | – | – | ≤ 0.5 | 1 (≈ 2.3 µM) | – |
| Cc1cccc2c1[nH]c1nc(Sc3cnc4nccnc4c3)nc(N3CC4C(N)C4C3)c12 (centres unmarked) [1.7] | – | – | 4 (≈ 9.08 µM) | > 32 | – |
| CNc1cc(Cl)cc2c1[nH]c1nc(Oc3cnc4cccnc4c3)nc(N3CCCC4(CC4N)C3)c12 (centres unmarked) [6.14] | – | – | – | – | MIC Sa (S. aureus ATCC 13709): ≤0.5 µg/mL; MIC Ec (E. coli ATCC 25922): 1 µg/mL (≈ 2 µM) |
| CNc1cc(F)cc2c1[nH]c1nc(Oc3cncc(F)c3)nc(N3CC4CC(N)C4C3)c12 (centres unmarked) [4.060] | ≤0.5 | ≤0.5 | – | – | – |
| CNc1cc(F)c(F)c2c1[nH]c1nc(Oc3cncnc3)nc(N3CC4C(N)C4C3)c12 (centres unmarked) [6.19] | – | – | – | – | MIC Sa (S. aureus ATCC 13709): >16 µg/mL; MIC Ec (E. coli ATCC 25922): >16 µg/mL |
| CNc1cc(F)cc2c1[nH]c1nc(Oc3cnc(N4CC(S(=O)(=O)CC5CC5)C4)nc3)nc(N3C[C@H](N)C4(CC4)C3)c12 [4.338] | ≤0.5 | 2 (≈ 3.37 µM) | – | – | – |
| CNc1cc(F)cc2c1[nH]c1nc(Oc3cnc(C4CC4)nc3)nc(N3CC(N)C4(CC4)C3)c12 (centres unmarked) [4.242] | ≤0.5 | ≤0.5 | – | – | – |
| CNc1cc(F)cc2c1[nH]c1nc(Oc3cnc(SC)nc3)nc(N3CC4C[C@@H](N)C4C3)c12 (some centres unmarked) [4.201] | – | – | ≤ 0.5 | ≤ 0.5 | – |
| CNc1cc(F)cc2c1[nH]c1nc(Oc3cnc4c(c3)ncn4C)nc(N3CCC(N)C3)c12 (centres unmarked) [4.225] | ≤0.5 | 2 (≈ 4.47 µM) | – | – | – |
| NC1CCN(c2nc(Sc3cnc4nccnc4c3)nc3[nH]c4ccccc4c23)C1 (centres unmarked) [1.6] | – | – | 32 (≈ 77.2 µM) | > 64 | – |
| CNc1cc(F)cc2c1[nH]c1nc(Oc3cnc(SC)nc3)nc(N3C[C@H]4C[C@@H]3C[C@H]4N)c12 [4.204] | ≤0.5 | ≤0.5 | – | – | – |
| CNc1cc(F)cc2c1[nH]c1nc(Oc3cnc(C4CC4)nc3)nc(N3CC4CC4(CN)C3)c12 (centres unmarked) [4.246] | – | – | ≤ 0.5 | ≤ 0.5 | – |
| CNc1cc(F)cc2c1[nH]c1nc(Oc3cnc4c(c3)ncn4C3CC3)nc(N3CC(N)C4(CC4)C3)c12 (centres unmarked) [4.362] | ≤0.5 | 1 (≈ 2 µM) | – | – | – |
| CNc1cccc2c1[nH]c1nc(Oc3cnc4cccnc4c3)nc(N3CC(N)C4(CC4)C3)c12 (centres unmarked) [3.52] | – | – | ≤ 0.5 | ≤ 0.5 | – |

| Compound | MIC Sa (S. aureus ATCC 13709; [1]) [µg/mL] | MIC Ec (E. coli ATCC 25922; [2]) [µg/mL] | MIC (S. aureus ATCC 13709; [3]) [µg/mL] | MIC (E. coli ATCC 25922; [3]) [µg/mL] | also measured |
| --- | --- | --- | --- | --- | --- |
| CNc1cccc2c1[nH]c1nc(Oc3cnc(C)nc3)nc(N3CC4C(C3)C4NCCC#N)c12 (centres unmarked) [3.11] | – | – | ≤ 0.5 | 2 (≈ 4.39 µM) | – |
| CNc1cc(F)cc2c1[nH]c1nc(Oc3cnc4[nH]cnc4c3)nc(N3CC4CCNC4C3)c12 (centres unmarked) [4.312] | – | – | 16 (≈ 34.8 µM) | > 16 | – |
| CNc1cc(F)cc2c1[nH]c1nc(Oc3cnc(N)nc3)nc(N3C[C@H]4CC3C[C@H]4N)c12 [4.191] | – | – | ≤ 0.5 | 2 (≈ 4.59 µM) | – |
| CNc1cc(F)cc2c1[nH]c1nc(Oc3cnc(C)nc3)nc(N3CCCC(N)C3)c12 (centres unmarked) [4.077] | ≤0.5 | ≤0.5 | – | – | – |
| CNc1cccc2c1[nH]c1nc(Oc3cncc(C#N)c3)nc(N3CCN(CCN4CCOCC4)CC3)c12 [3.59] | – | – | 4 (≈ 7.79 µM) | > 64 | – |
| CNc1cc(F)cc2c1[nH]c1nc(Oc3cnc(C)nc3)nc(N3CC4(CC4N)C3)c12 (centres unmarked) [4.096] | ≤0.5 | ≤0.5 | – | – | – |
| CNc1cc(F)c(F)c2c1[nH]c1nc(Oc3cnc(C)nc3)nc(N3CC(N)C4(CC4)C3)c12 (centres unmarked) [5.05] | ≤0.5 | ≤0.5 | – | – | – |
| CNc1cc(F)cc2c1[nH]c1nc(Oc3cnc4cccnc4c3)nc(N3CC4CC[C@@H](N)[C@H]4C3)c12 (some centres unmarked) [4.047] | – | – | ≤ 0.5 | ≤ 0.5 | – |
| CNc1cc(F)cc2c1[nH]c1nc(Oc3cnc4ccc[n+]([O-])c4c3)nc(N3CC4(CCC4N)C3)c12 (centres unmarked) [4.342] | ≤0.5 | 4 (≈ 8.22 µM) | – | – | – |
| CNc1cc(F)cc2c1[nH]c1nc(Oc3cnc(Cl)nc3)nc(N3CC4C(N)CC4(C)C3)c12 (centres unmarked) [4.379] | ≤0.5 | ≤0.5 | – | – | – |
| CNc1cc(F)cc2c1[nH]c1nc(Oc3cnc(C)nc3)nc(C3=CCNCC3)c12 [4.162] | 8 (≈ 19.7 µM) | >16 | – | – | – |
| CNc1cc(F)cc2c1[nH]c1nc(Oc3cnc(N)nc3)nc(N3C[C@H]4CC[C@@H](N)[C@H]4C3)c12 [4.186] | – | – | ≤ 0.5 | 2 (≈ 4.45 µM) | – |
| CNc1cc(F)cc2c1[nH]c1nc(Oc3cnc(N(C)C)nc3)nc(N3C[C@H](N)C4(CC4)C3)c12 [4.209] | – | – | ≤ 0.5 | ≤ 0.5 | – |
| CNc1ncnc2c1[nH]c1nc(-c3cncnc3)nc(N3CC4C(N)C4C3)c12 (centres unmarked) [7.11] | – | – | > 64 | > 64 | – |
| CNc1cccc2c1[nH]c1nc(Sc3cnc4cccnc4c3)nc(N3C[C@@H](N)C[C@H]3C)c12 [1.60] | – | – | 0.5 (≈ 1.1 µM) | 2 (≈ 4.38 µM) | – |
